Results taken from US12673140B2, “Bladder, ureter, kidney, urethra, prostate and catheter anti-microbial, and biofilm prevention, reduction and treatment” (UHI, LLC, priority 2019, dated 2026).

System: S. aureus
Assay: MIC, CLSI microdilution
Type: cell-based
Settings: 2% solution serially diluted

[H]/N=C(\N/C(=N/[H])NCCCCCCNC(=N)NC(=N)Nc1ccc(Cl)cc1)Nc1ccc(Cl)cc1 [Chlorhexidine, chlorhexidine gluconate]
Chlorhexidine MIC: 19.6 μg/ml chlorhexidine
